# Results reported in patent US20150159169A1, “Plants Tolerant to HPPD Inhibitor Herbicides” (Bayer CropScience AG, priority 2009, published 2015).
# Where “and” joins values, the source holds several entries; their conditions need not be identical. Equal entries are not always repeated.
# How the values were obtained:
# [1] = system: T1 tobacco plants containing FMP27e (Kordia algicida HPPD FMP27); assay: Glasshouse spray trial, % injury; type: in vivo, Nicotiana tabacum; conditions: 7DAT, 100 gAI/ha spray
# Method: (§1) T0 Tobacco plants containing either the gene from Arabidopsis coding for HPPD or the gene FMP27e from Kordia algicida coding for FMP27 HPPD, mentioned above (Example 3), were transferred to the glasshouse (28/20° C.), to develop further and produce seeds. Those seeds were harvested and put on soil (ED73 mixed with sand and osmocote Pro) to germinate in the glasshouse (28/20° C.). Three to four weeks later, plantlets were transferred to single pots containing the soil mentioned above. Two weeks later, plants of a size 4-6 cm diameter were sprayed with either • tembotrione at 100 gAI/ha prepared from a WP20 (wettable powder 20%) formulation supplemented with ammonium sulfate and methyl ester raps oil, or • isoxaflutole at 100 gAI/ha prepared from a WP20 formulation supplemented with ammonium sulfate and methyl ester raps oil, or • bicyclopyrone at 100 gAI/ha prepared from a WP20 formulation supplemented with ammonium sulfate and methyl ester raps oil, or • “blind formulation” made from a WP20 formulation without active ingredient (AI) supplemented with ammonium sulfate and methyl ester raps oil, and were then transferred to a growth chamber with adequate light conditions (20000 Lux).
# (§2) Table 6: Wild type tobacco plants (A) and T1 populations of tobacco events containing alternatively, the expression cassettes described above having the promoter CaMV 35S, the sequence coding for OTP and the sequence coding for Arabidopsis HPPD (B) or the promoter CaMV35S, the sequence encoding OTP, and the sequence FMP27e coding for the HPPD FMP27 (C). Assessments of herbicidal damage at 7 days after application (DAT) per spray with 100 g AI/ha of tembotrione or isoxaflutole supplemented with ammonium sulfate and methyl ester raps oil. […] Plants belonging to categories (B) and (C) have not been selected for the presence of the respective transgene prior to the herbicide application.
# wild type tobacco plants = assay: Glasshouse spray trial, % injury; type: in vivo, Nicotiana tabacum; conditions: 7DAT, 100 gAI/ha spray; individual WT plants; 100% = bleaching as wild type
# Method: as §1, §2
# [2] = system: T1 tobacco plants containing Arabidopsis HPPD; assay: Glasshouse spray trial, % injury; type: in vivo, Nicotiana tabacum; conditions: 7DAT, 100 gAI/ha spray
# Method: as §1, §2
# [3] = system: tobacco calli containing SEQ ID No. 11 (Arabidopsis thaliana HPPD); assay: Rooting of calli on tembotrione media; type: cell-based, Nicotiana tabacum; conditions: 6 to 12 weeks, calli with SEQ ID No. 11
# Method: (§3) The leaf disks were co-cultivated for 2 days with Agrobacterium tumefaciens cells containing either the binary vector FMP27ebv or AtHPPDbv. Then the leaf disks were transferred to a media allowing the regeneration of shoots for 6 weeks on MS (Musharige and Skoog, (1962), Physiol Plant 15(3): 473-497) media supplemented with BAP (1 mg/mL; Benzylaminopurine), carbenicillin (250 mg/mL), cefotaxine (250 mg/mL), kanamycin (75 mg/mL) and tembotrione (10^−6 M)
# (§4) Regenerated calli were transferred on media to induce the development of roots for 6 to 12 weeks: MS (1/2), supplemented with carbenicillin (250 mg/mL), cefotaxine (250 mg/mL), kanamycin (75 mg/mL), and tembotrione (10^−6 M).
# (§5) Regenerated shoot calli from a cell transformed with a nucleic acid sequence encoding an HPPD comprising SEQ ID No. 11 (Arabidopsis thaliana) or SEQ ID No. 7 (Kordia algicida) were transferred to a media inducing root growth which media was further supplemented with the HPPD inhibitor tembotrione for 6 to 12 weeks.
# [4] = system: tobacco calli containing SEQ ID No. 7 (Kordia algicida HPPD); assay: Rooting of calli on tembotrione media; type: cell-based, Nicotiana tabacum; conditions: 6 to 12 weeks, calli with SEQ ID No. 7
# Method: as §3, §4, §5
# [5] = system: tobacco plants containing FMP27t-h, PAT and 2mEPSPS (pFCO116); assay: Glasshouse response of three-tolerance-gene tobacco to herbicides, injury classes; type: in vivo, Nicotiana tobacum; conditions: 100 g AI/ha, 9 DAT
# Method: A binary vector for tobacco transformation is, for example, constructed with the CaMV35 promoter driving the expression of the gene FMP27t-h (SEQ ID No. 15), with a codon usage optimized for the expression in dicotyledoneous plants and at its 5′extremity was added a sequence coding for an OTP, and further upstream a sequence TEV (Tobacco etch virus) to improve the stability of the mRNA in plants followed by the CaMV35S terminator. The nucleotide sequence of the gene FMP27t-h is given in SEQ ID No. 15. Additionally, the transformation vector also contains a PAT gene cassette in which the gene is driven by a CaVM35S promoter and followed by a CaMV35S terminator for glufosinate based selection during the transformation process and a 2mEPSPS gene cassette in which the gene is driven by an histone promoter from Arabidopsis to confer tolerance to the herbicide glyphosate to the transformed plants (see FIG. 3 H). The binary vector was called pFCO116. The above vector was used to transform leaf disc obtained from Nicotiana tobacum plants, according to Example 3.
# Transgenic tobacco plants were transferred to the greenhouse and treated with glyphosate at a rate of 1121 g AI/ha. Seeds were produced from such tolerant tobacco plants and harvested. These seeds were put on soil to germinate in the glasshouse. Three to four weeks later, 50 plantlets per event were transferred to single pots. Two weeks later, plants of a size 4-6 cm were sprayed either with
# […] […] Non-transgenic tobacco plants were completely killed by treatment using one or more of the above herbicides.
smiles,measurement,setting,value
"CS(=O)(=O)c1ccc(C(=O)C2C(=O)CCCC2=O)c(Cl)c1COCC(F)(F)F [Tembotrione, 2-[2-chloro-4-(methylsulfonyl)-3-[(2,2,2,-tri-fluoroethoxy)methyl]benzoyl]-1,3-cyclo-hexanedione]",% injury,"[1]; line 121, individual T1 plants",0% (4×) and 5% (3×) and 10% (6×)
same,% injury,"[1]; line 129, individual T1 plants",0% (2×) and 5% (2×) and 10% (2×) and 15% (2×) and 30% (2×)
same,% injury,"[1]; line 218, individual T1 plants",0% (11×) and 5% (4×)
same,% injury,wild type tobacco plants,100%
same,% injury,"[2]; line 252, individual T1 plants",30% and 40% (3×) and 50% and 60% (2×) and 70% (2×) and 75% (3×) and 80%
same,% injury,"[2]; line 258, individual T1 plants",100% (5×) and 30%
same,% injury,"[2]; line 327, individual T1 plants",10% and 20% (2×) and 40% and 50% (2×) and 70% (5×) and 80% (4×)
same,% Elongation & rooting on 10^−6M tembotrione,[3],0%
same,% Elongation & rooting on 10^−6M tembotrione,[4],62%
same,"Class I, number of plants (no injuries)",[5]; line 639,7
same,"Class II, number of plants (injury: 10-40%)",[5]; line 639,3
same,"Class III, number of plants (injury: 41-100%)",[5]; line 639,0
same,"Class I, number of plants (no injuries)",[5]; line 714,5
same,"Class II, number of plants (injury: 10-40%)",[5]; line 714,1
same,"Class III, number of plants (injury: 41-100%)",[5]; line 714,4
same,"Class I, number of plants (no injuries)",[5]; line 717,4
same,"Class II, number of plants (injury: 10-40%)",[5]; line 717,2
same,"Class III, number of plants (injury: 41-100%)",[5]; line 717,4
